Test results published in US20240116985A1, “STAPLED PEPTIDES AND METHODS THEREOF” (priority 2020, published 2024).
pIC50: −log10 of the molar value.

Key:
[1] = molecular target: T1, full-length beta-Catenin (Uniprot ID P35222) (Homo sapiens, UniProt P35222); experiment: Fluorescence polarization IC50 (beta-catenin / 5FAM-TCF4 10-53 competition); type: binding; details: fluorescence polarization; read-out: beta-Catenin FP IC50
T1 construct: 10 nM full-length beta-Catenin (Uniprot ID P35222)
T1 sequence (P35222 1-781): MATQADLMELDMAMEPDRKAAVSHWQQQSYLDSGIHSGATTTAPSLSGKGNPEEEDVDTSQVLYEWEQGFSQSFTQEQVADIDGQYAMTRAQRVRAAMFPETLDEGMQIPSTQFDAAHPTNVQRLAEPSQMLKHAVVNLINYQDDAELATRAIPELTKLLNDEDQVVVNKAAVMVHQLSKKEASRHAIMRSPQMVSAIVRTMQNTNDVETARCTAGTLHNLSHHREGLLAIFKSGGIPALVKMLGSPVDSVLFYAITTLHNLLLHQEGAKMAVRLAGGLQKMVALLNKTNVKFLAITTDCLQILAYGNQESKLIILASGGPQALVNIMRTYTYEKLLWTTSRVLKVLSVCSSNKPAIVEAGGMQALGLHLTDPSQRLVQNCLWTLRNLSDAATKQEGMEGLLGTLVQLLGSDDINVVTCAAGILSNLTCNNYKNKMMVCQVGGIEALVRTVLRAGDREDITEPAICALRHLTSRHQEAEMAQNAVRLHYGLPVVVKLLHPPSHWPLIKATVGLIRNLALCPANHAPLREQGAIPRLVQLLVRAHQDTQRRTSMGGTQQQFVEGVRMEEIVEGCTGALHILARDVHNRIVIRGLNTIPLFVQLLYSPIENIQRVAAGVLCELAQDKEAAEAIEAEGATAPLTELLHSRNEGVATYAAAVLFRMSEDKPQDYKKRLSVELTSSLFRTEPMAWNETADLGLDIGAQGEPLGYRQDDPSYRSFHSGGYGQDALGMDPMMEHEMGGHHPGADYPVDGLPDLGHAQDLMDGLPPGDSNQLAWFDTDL

[2] = molecular target: T2, beta-catenin/TCF4 engagement (Homo sapiens, UniProt P35222); experiment: Nano-BRET target engagement assay (B-cat-Halo & TCF4-Luc in HEK293 cells); type: cell-based; details: read-out: NanoBRET Abs IC50
T2 construct: expressed in transfected cells; host or cells: HEK293
T2 sequence (P35222 1-781): T1 sequence (P35222 1-781)

| SMILES | pIC50 [1] | pIC50 [2] |
| --- | --- | --- |
| CC(=O)N1CCC[C@]12CC=CCCCC1(CCCC=CCCCOC(=O)N3CC[C@@](C(=O)N[C@@H](Cc4ccsc4)C(=O)N[C@@H](Cc4csc5ccccc45)C(=O)N[C@@H](CCC(N)=O)C(N)=O)(C3)NC(=O)[C@H](CC(C)C)NC(=O)[C@H](Cc3ccccc3)NC(=O)[C@H](C)NC(=O)[C@H](C)NC(=O)[C@H](CCn3cc(CCC(=O)O)nn3)NC(=O)[C@H](CC(=O)O)NC1=O)NC(=O)[C@H](CC(C)(C)C)NC(=O)[C@H](CC(=O)O)NC2=O (stereo partly drawn) [I-2076, Ac-PL3-Asp-Npg-B5-Asp-[CH2CH2CO2H]TriAzDab-Ala-Ala-Phe-Leu-PyrS2-3Thi-BztA-Gln-NH2] | 7.80 | 4.85 |
| CC(=O)N1CCC[C@]12CC=CCCCC1(CCCC=CCCCOC(=O)N3CC[C@@](C(=O)N[C@@H](Cc4ccsc4)C(=O)N[C@@H](Cc4csc5ccccc45)C(=O)N[C@@H](CCC(N)=O)C(N)=O)(C3)NC(=O)[C@H](CC(C)C)NC(=O)[C@H](Cc3ccccc3)NC(=O)[C@H](C)NC(=O)[C@H](C)NC(=O)[C@H](CCn3cc(CC(=O)O)nn3)NC(=O)[C@H](CC(=O)O)NC1=O)NC(=O)[C@H](CC(C)(C)C)NC(=O)[C@H](CC(=O)O)NC2=O (stereo partly drawn) [I-2078, Ac-PL3-Asp-Npg-B5-Asp-[CH2CO2H]TriAzDab-Ala-Ala-Phe-Leu-PyrS2-3Thi-BztA-Gln-NH2] | 8.30 | 4.93 |
| CC(=O)N1CCC[C@]12CC=CCCCC1(CCCC=CCCCOC(=O)N3CC[C@@](C(=O)N[C@@H](Cc4ccsc4)C(=O)N[C@@H](Cc4csc5ccccc45)C(=O)N[C@@H](CCC(N)=O)C(N)=O)(C3)NC(=O)[C@H](CC(C)C)NC(=O)[C@H](Cc3ccccc3)NC(=O)[C@H](C)NC(=O)[C@H](C)NC(=O)[C@H](CCn3cc(C(C)(C)C(=O)O)nn3)NC(=O)[C@H](CC(=O)O)NC1=O)NC(=O)[C@H](CC(C)(C)C)NC(=O)[C@H](CC(=O)O)NC2=O (stereo partly drawn) [I-2079, Ac-PL3-Asp-Npg-B5-Asp-[CMe2CO2H]TriAzDab-Ala-Ala-Phe-Leu-PyrS2-3Thi-BztA-Gln-NH2] | 8.10 | 4.82 |
| CC(=O)N1CCC[C@]12CC=CCCCC1(CCCC=CCCCOC(=O)N3CC[C@@](C(=O)N[C@@H](Cc4ccsc4)C(=O)N[C@@H](Cc4csc5ccccc45)C(=O)N[C@@H](CCC(N)=O)C(N)=O)(C3)NC(=O)[C@H](CC(C)C)NC(=O)[C@H](Cc3ccccc3)NC(=O)[C@H](C)NC(=O)[C@H](C)NC(=O)[C@H](CCn3cc(-c4ccccc4C(=O)O)nn3)NC(=O)[C@H](CC(=O)O)NC1=O)NC(=O)[C@H](CC(C)(C)C)NC(=O)[C@H](CC(=O)O)NC2=O (stereo partly drawn) [I-2080, Ac-PL3-Asp-Npg-B5-Asp-[2COOHPh]TriAzDab-Ala-Ala-Phe-Leu-PyrS2-3Thi-BztA-Gln-NH2] | 7.35 | 4.54 |
| CC(=O)N1CCC[C@]12CC=CCCCC1(CCCC=CCCCOC(=O)N3CC[C@@](C(=O)N[C@@H](Cc4ccsc4)C(=O)N[C@@H](Cc4csc5ccccc45)C(=O)N[C@@H](CCC(N)=O)C(N)=O)(C3)NC(=O)[C@H](CC(C)C)NC(=O)[C@H](Cc3ccccc3)NC(=O)[C@H](C)NC(=O)[C@H](C)NC(=O)[C@H](CCn3cc(-c4ccccc4C(=O)O)nn3)NC(=O)[C@H](CC(=O)O)NC1=O)NC(=O)[C@H](CC(C)(C)C)NC(=O)[C@H](CC(=O)O)NC2=O (stereo partly drawn) [I-2081, Ac-PL3-Asp-Npg-B5-Asp-[2COOHPh]TriAzDab-Ala-Ala-Phe-Leu-PyrS2-3Thi-BztA-Gln-NH2] | 7.89 | 4.94 |
| CC(=O)N1CCC[C@]12CC=CCCCC1(CCCC=CCCCOC(=O)N3CC[C@@](C(=O)N[C@@H](Cc4ccsc4)C(=O)N[C@@H](Cc4csc5ccccc45)C(=O)N[C@@H](CCC(N)=O)C(N)=O)(C3)NC(=O)[C@H](CC(C)C)NC(=O)[C@H](Cc3ccccc3)NC(=O)[C@H](C)NC(=O)[C@H](C)NC(=O)[C@H](Cn3cc(CCC(=O)O)nn3)NC(=O)[C@H](CC(=O)O)NC1=O)NC(=O)[C@H](CC(C)(C)C)NC(=O)[C@H](CC(=O)O)NC2=O (stereo partly drawn) [I-2082, Ac-PL3-Asp-Npg-B5-Asp-[CH2CH2CO2H]TriAzDap-Ala-Ala-Phe-Leu-PyrS2-3Thi-BztA-Gln-NH2] | 8.30 | 5.11 |
| CC(=O)N1CCC[C@]12CC=CCCCC1(CCCC=CCCCOC(=O)N3CC[C@@](C(=O)N[C@@H](Cc4ccsc4)C(=O)N[C@@H](Cc4csc5ccccc45)C(=O)N[C@@H](CCC(N)=O)C(N)=O)(C3)NC(=O)[C@H](CC(C)C)NC(=O)[C@H](Cc3ccccc3)NC(=O)[C@H](C)NC(=O)[C@H](C)NC(=O)[C@H](Cn3cc(CC(C)(C)C(=O)O)nn3)NC(=O)[C@H](CC(=O)O)NC1=O)NC(=O)[C@H](CC(C)(C)C)NC(=O)[C@H](CC(=O)O)NC2=O (stereo partly drawn) [I-2083, Ac-PL3-Asp-Npg-B5-Asp-[CH2CMe2CO2H]TriAzDap-Ala-Ala-Phe-Leu-PyrS2-3Thi-BztA-Gln-NH2] | 8.30 | 5.43 |
| CC(=O)N1CCC[C@]12CC=CCCCC1(CCCC=CCCCOC(=O)N3CC[C@@](C(=O)N[C@@H](Cc4ccsc4)C(=O)N[C@@H](Cc4csc5ccccc45)C(=O)N[C@@H](CCC(N)=O)C(N)=O)(C3)NC(=O)[C@H](CC(C)C)NC(=O)[C@H](Cc3ccccc3)NC(=O)[C@H](C)NC(=O)[C@H](C)NC(=O)[C@H](Cn3cc(C(C)(C)C(=O)O)nn3)NC(=O)[C@H](CC(=O)O)NC1=O)NC(=O)[C@H](CC(C)(C)C)NC(=O)[C@H](CC(=O)O)NC2=O (stereo partly drawn) [I-2085, Ac-PL3-Asp-Npg-B5-Asp-[CMe2CO2H]TriAzDap-Ala-Ala-Phe-Leu-PyrS2-3Thi-BztA-Gln-NH2] | 8.30 | 5.21 |
| CC(=O)N1CCC[C@]12CC=CCCCC1(CCCC=CCCCOC(=O)N3CC[C@@](C(=O)N[C@@H](Cc4ccsc4)C(=O)N[C@@H](Cc4csc5ccccc45)C(=O)N[C@@H](CCC(N)=O)C(N)=O)(C3)NC(=O)[C@H](CC(C)C)NC(=O)[C@H](Cc3ccccc3)NC(=O)[C@H](C)NC(=O)[C@H](C)NC(=O)[C@H](Cn3cc(-c4ccccc4C(=O)O)nn3)NC(=O)[C@H](CC(=O)O)NC1=O)NC(=O)[C@H](CC(C)(C)C)NC(=O)[C@H](CC(=O)O)NC2=O (stereo partly drawn) [I-2086, Ac-PL3-Asp-Npg-B5-Asp-[2COOHPh]TriAzDap-Ala-Ala-Phe-Leu-PyrS2-3Thi-BztA-Gln-NH2] | 7.92 | 4.79 |
| CC(=O)N1CCC[C@]12CC=CCCCC1(CCCC=CCCCOC(=O)N3CC[C@@](C(=O)N[C@@H](Cc4ccsc4)C(=O)N[C@@H](Cc4csc5ccccc45)C(=O)N[C@@H](CCC(N)=O)C(N)=O)(C3)NC(=O)[C@H](CC(C)C)NC(=O)[C@H](Cc3ccccc3)NC(=O)[C@H](C)NC(=O)[C@H](C)NC(=O)[C@H](CNc3ccc(N)cc3C(=O)O)NC(=O)[C@H](CC(=O)O)NC1=O)NC(=O)[C@H](CC(C)(C)C)NC(=O)[C@H](CC(=O)O)NC2=O (stereo partly drawn) [I-2087, Ac-PL3-Asp-Npg-B5-Asp-[2COOH4NH2Ph]Dap-Ala-Ala-Phe-Leu-PyrS2-3Thi-BztA-Gln-NH2] | 7.59 | 5.19 |
| CC(=O)N1CCC[C@]12CC=CCCCC1(CCCC=CCCCOC(=O)N3CC[C@@](C(=O)N[C@@H](Cc4ccsc4)C(=O)N[C@@H](Cc4csc5ccccc45)C(=O)N[C@H](CCC(N)=O)C(N)=O)(C3)NC(=O)[C@H](CC(C)C)NC(=O)[C@H](Cc3ccccc3)NC(=O)[C@H](C)NC(=O)[C@H](C)NC(=O)[C@H](Cc3cccc(C(=O)O)c3)NC(=O)[C@H](CC(=O)O)NC1=O)NC(=O)[C@H](CC(C)(C)C)NC(=O)[C@H](CC(=O)O)NC2=O (stereo partly drawn) [I-2088, Ac-PL3-Asp-Npg-B5-Asp-3COOHF-Ala-Ala-Phe-Leu-PyrS2-3Thi-BztA-dGln-NH2] | 8.00 | 5.36 |
| CC(=O)N1CCC[C@]12CC=CCCCC1(CCCC=CCCCOC(=O)N3CC[C@@](C(=O)N[C@@H](Cc4ccsc4)C(=O)N[C@@H](Cc4csc5ccccc45)C(=O)N[C@H](C)C(N)=O)(C3)NC(=O)[C@H](CC(C)C)NC(=O)[C@H](Cc3ccccc3)NC(=O)[C@H](C)NC(=O)[C@H](C)NC(=O)[C@H](Cc3cccc(C(=O)O)c3)NC(=O)[C@H](CC(=O)O)NC1=O)NC(=O)[C@H](CC(C)(C)C)NC(=O)[C@H](CC(=O)O)NC2=O (stereo partly drawn) [I-2090, Ac-PL3-Asp-Npg-B5-Asp-3COOHF-Ala-Ala-Phe-Leu-PyrS2-3Thi-BztA-dAla-NH2] | 7.96 | 5.23 |
| CC(=O)N1CCC[C@]12CC=CCCCC1(CCCC=CCCCOC(=O)N3CC[C@@](C(=O)N[C@@H](Cc4ccccc4C(F)(F)F)C(=O)N[C@@H](Cc4csc5ccccc45)C(=O)N[C@H](C)C(N)=O)(C3)NC(=O)[C@H](CC(C)C)NC(=O)[C@H](Cc3ccccc3)NC(=O)[C@H](C)NC(=O)[C@H](C)NC(=O)[C@H](Cc3cccc(C(=O)O)c3)NC(=O)[C@H](CC(=O)O)NC1=O)NC(=O)[C@H](CC(C)(C)C)NC(=O)[C@H](CC(=O)O)NC2=O (stereo partly drawn) [I-2091, Ac-PL3-Asp-Npg-B5-Asp-3COOHF-Ala-Ala-Phe-Leu-PyrS2-2F3MeF-BztA-dAla-NH2] | 7.31 | 5.21 |
